From patent publication US12194093B2, “Dosing parameters for CD47 targeting therapies to hematologic malignancies” (The Board of Trustees of the Leland Stanford Junior …, priority 2017, dated 2025)
Entries after “also recorded” stand apart in the source; their conditions may differ.

Key:
HL60 leukemia cells = experiment: Macrophage phagocytosis of HL60 leukemia cells (flow cytometry); assay type: cell-based, human; details: azacitidine 1 μM
Experimental: Macrophages were labeled with an anti-CD206 Ab and all cells were analyzed by flow cytometry to determine phagocytosis of HL60 leukemia cells. Phagocytosis of HL60 leukemia cells was determined as percentage of GFP positive, HL60 engulfing, macrophages compared to total number of macrophages. Results were normalized to the condition with maximal phagocytosis (100%).

AML [1] = experiment: AML Phase 1 trial, clinical response; assay type: in vivo, human
Experimental: (§1) This trough level served as the minimum trough level target to guide dosing in the Phase 1 trial. […] Rapid peaks and troughs observed were consistent with target-mediated disposition due to non-linear saturation of the CD47 sink. […] Dose levels of 10 mg/kg or greater (Cohorts 3 and 4) achieve target trough levels by about 4 weeks, which is the time of first response assessment.
Several additional factors are notable for these patients with biologic activity.

[2] = AML Phase 1 trial, serum concentrations of Hu5F9-G4; assay type: in vivo, human; details: patients
Experimental: as §1

circulating WBC = experiment: AML Phase 1 trial, cytoreduction with concomitant Hu5F9-G4, safety; assay type: in vivo, human; details: any patients treated on Phase 1 trial
[3] = test system: bone marrow macrophages and T cells; experiment: Immunohistochemistry of macrophages and T cells in patient bone marrow; assay type: in vivo, human; details: patient with partial response
Experimental: In one patient that obtained a partial response, macrophage and T cell infiltrates in the bone marrow was assessed.

AML [4] = experiment: Pre-clinical models, trough level and anti-leukemic activity; assay type: in vivo
Experimental: as §1
(§2) Prospective testing of AML patients' molecular, chromosomal, and phenotypic characteristics by DNA sequencing, cytogenetic analysis/fluorescence in situ hybridization (FISH), and flow cytometry, can lead to identification of patients with greater responses to Hu5F9-G4.

myeloid mutations = experiment: Targeted DNA sequencing of myeloid mutations in Phase 1 AML patients; assay type: in vivo, human; details: Phase 1 AML patients receiving Hu5F9-G4
Text: as §2

human AML = experiment: Human AML xenograft mouse model, early death and disease clearance; assay type: in vivo
Text: We have established a human AML xenograft mouse model to test CD47-SIRPalpha pathway blocking therapies.
We also observed that early death seemed to be related to burden of circulating disease, in that mice with high levels of circulating leukemia cells succumbed to early death.
The object of this study was to determine whether early death observed in AML-xenografted mice can be avoided by reducing the rate at which leukemia cells are killed. […] It was hypothesized that early death might be due either to agglutination of leukemic cells or tumor lysis, and that early death may be avoided by reducing the rate at which leukemia cells are killed.
All mice in the control group continuously progressed and died.

Nc1ncn([C@@H]2O[C@H](CO)[C@@H](O)[C@H]2O)c(=O)n1 [Azacitidine]
phagocytic elimination of HL60 leukemia cells by human macrophages (HL60 leukemia cells): did not enhance

Hu5F9-G4: a humanized anti-CD47 antibody
blast reduction (AML [1]; Cohort 3, one patient with partial response): > 50% | RBC transfusion requirements (AML [1]; Cohort 3, patient with partial response, month 3 and beyond of treatment): from approximately every week prior to treatment to once a month | duration of response (AML [1]; Cohort 3, patient with partial response, ongoing): over 6 months | patients exhibiting biologic antileukemic activity (AML [1]; maximum of 10 mg/kg twice weekly (Cohort 3)): two out of three | response to therapy (AML [1]; patients, at or below 3 mg/kg (Cohorts 1 and 2)): not expected nor observed | achievement of target trough levels (100 μg/ml) ([2]; dose levels 3 mg/kg or less (Cohorts 1 and 2)): did not achieve target trough levels | time to achieve target trough levels (100 μg/ml) ([2]; dose levels of 10 mg/kg or greater (Cohorts 3 and 4)): about 4 weeks | acute death related to Hu5F9-G4 (circulating WBC): No acute death | macrophages present in the marrow (CD68 or CD163 staining) ([3]; week 4 of treatment): significant number of macrophages | T cell infiltrates, of all bone marrow cells ([3]; week 8 of therapy, baseline 10-15% or 15%): 40-50% | pre-clinical activity across AML subtypes (AML [4]; monotherapy, cytogenetic, molecular, phenotypic/morphologic subtypes): monotherapy activity across a wide range of cytogenetic, molecular, and phenotypic AML subtypes; also recorded: broad pre-clinical activity across AML morphologic, molecular, and cytogenetic subtypes | activity in relation to tumor burden (AML [4]; pre-clinical and initial clinical studies): enhanced activity in lower tumor burden of disease | trough level associated with efficacy (AML [4]; pre-clinical models): ≥ 100 µg/mL | mutational burden (variant allele frequency) (myeloid mutations): Reduction in mutational burden (variant allele frequency) was observed for some mutations over others | effect of intra-subject dose escalation (low doses first, then higher doses) (human AML; AML xenografted mice with high circulating burden): prevented early mortality but also resulted in safe clearance of leukemic cells | clearance of disease (human AML; Cohort I, 100 μg/day for 14 days, sole surviving mouse): disease was cleared | clearance of disease (human AML; Cohort III, 7 doses of 1 μg, 7 doses of 10 μg, 14 doses of 100 μg): noticeably diminished | relapse (human AML; Cohort III, after end of treatment): relapsed several weeks after the end of treatment | effect of retreatment after relapse (human AML; groups that received dose-escalating regimen): cleared the disease and led to long-term disease free survival in some cases | early death (human AML; initial dose 1 μg (Cohort III)): no early deaths and None | early death (human AML; initial dose 10 μg (Cohort II)): 1 of 5 and One mouse out of five | early death (human AML; initial dose 100 μg (Cohort I)): Four out of five | survival of subsequent doses (human AML; mouse, in vivo): remaining four mice survived | time to death after administration of the first dose (human AML; xenografted mice with very high circulating AML burden (>50% of total WBC) and marrow infiltration): ≤ 1 h
